Measured values published in patent US20180250328A1, “Metallocene-boronic acid-containing compounds and copolymers as antimicrobial agents” (University of South Carolina, priority 2017, published 2018).

Columns and labels:
S. aureus = assay: disk-diffusion assay of penicillin-loaded polymers; assay type: cell-based; settings: Staphylococcus aureus
Experimental: FIG. 8B is a 3-D plot of inhibition zones of penicillin, penicillin loaded cobaltocenium-containing polymers (PCo-Peni), and penicillin loaded cobaltocenium-boronic acid-containing copolymers (PCo-PPB-Peni) against six strains of bacteria using different amounts of penicillin (A: 5 μg penicillin-G alone, B: PCo-Peni with 5 μg penicillin-G, C: PCo-PPB-Peni with 5 μg penicillin-G, D: 10 μg penicillin-G, E: PCo-Peni with 10 μg penicillin-G, F: PCo-PPB-Peni with 10 μg penicillin-G).
For the bacteria, a single colony was inoculated in 30 mL tryptic soy broth (TSB) at 37° C. for 24 hours, shaking at 190 rpm/min. All bacteria were grown to an optical density of about 1.00 (OD600=1.00) for further use. To conduct the agar disk-diffusion assays, actively-growing cultures of each bacterial strain on mannitol salt agar (MSA) were inoculated on tryptic soy broth (TSB) agar plates. The bacterial growth culture (cell concentrations were 1.0×10^6 CFU/mL) was diluted from 10 μL to 1 mL in tryptic soy broth (TSB) and 100 μL was spread on TSB agar plates to form a bacterial lawn covering the plate surface. Then, 6 mm (diameter) filter discs were added to the plate surface, aqueous cobaltocenium-boronic acid-containing copolymers (PCo-PPB) at different concentrations were added to disks, and the plates were incubated at 28° C. for 18 h. […]

[1] = system: six strains of bacteria (S. aureus, E. faecalis, E. coli, P. vulgaris, P. aeruginosa and K. pneumoniae); assay: LIVE/DEAD bacteria viability assay by CSLM; assay type: cell-based; settings: 18-hour incubation at 37° C.; penicillin-G 5, PCo-PPB 11 μg, PCo-PPB-Peni 16 μg per 1 mL
Experimental: One (1) mL of active bacterial stock of various strains was introduced to 5 penicillin-G, 11 μg cobaltocenium-boronic acid-containing copolymer, and 16 μg penicillin-loaded cobaltocenium-boronic acid-containing copolymers (penicillin-G weight: 5 m), respectively. An untreated cell suspension was used as the control. Following 18-hour incubation at 37° C., 1 μL LIVE/DEAD BacLight (Bacterial Viability Kit; INVITROGEN INC.®) was added to the incubation solution. After incubation for 15 minutes, cells were imaged using a LEICA TCS SP5® Laser Scanning Confocal Microscope with a 63X oil immersion lens.

With `CC1(C)S[C@@H]2[C@H](NC(=O)Cc3ccccc3)C(=O)N2[C@H]1C(=O)O` [penicillin-G] the zone of inhibition at 5 µg/disc (S. aureus; 5 μg penicillin-G) was 7 mm, the zone of inhibition at 10 µg/disc (S. aureus; 10 μg penicillin-G) was 14.5 mm and the “killing of bacteria (LIVE/DEAD BacLight)” value [1] was “not effective at killing bacteria”.
